Data published in patent US20240197680A1, “VORUCICLIB DOSING REGIMENS AND METHODS OF TREATMENT INCLUDING THE SAME” (MEI Pharma, Inc., priority 2021, published 2024).

What was measured:
[1] = PK of voruciclib, daily dosing continuously (Table 2); assay type: in vivo, human; conditions: mean; for Accumulation Ratio (AUC0-t): Day 15/Day 1
c-MYC expression = test: Gene biomarkers in Phase 1 daily dosing study: c-MYC expression in solid tumors; assay type: in vivo, human
[2] = system: Relapsed/Refractory B-cell malignancies; Relapsed/Refractory AML; assay type: in vivo, human
Description: Study population: Relapsed/Refractory B-cell malignancies; Relapsed/Refractory AML; Dose escalation with standard 3+3 design.
Endpoints: Safety and tolerability, Pharmacokinetics, Biologic correlative studies (BH3 profiling, MCL-1 expression, molecular mutations analysis), Response rates.
Voruciclib single agent dose escalation: 50 mg>100 mg>150 mg>200 mg.
Differentiation syndrome seen in 5 pts (50%) (Increased WBC without increased in blasts, bone pain, pulmonary symptoms; Response to corticosteroids).

[3] = PK of voruciclib, 2 weeks of daily dosing followed by 1 week without dosing in a 21-day cycle (Table 1); assay type: in vivo, human; conditions: mean
clinical = conditions: human, in vivo
Description: Voruciclib half-life is designated as t1/2 in the tables (expressed in hours). […] There is interpatient variability, explaining the outlier values.

[4] = Monotherapy Phase 1 studies in solid tumors: safety profile; assay type: in vivo, human; conditions: Phase 1 monotherapy
Solid Tumors [5] = test: Monotherapy Phase 1 study in solid tumors, 2 weeks on/1 week off schedule; assay type: in vivo, human; conditions: 29 pts
[6] = system: Venetoclax Sensitive and Resistant Cell Lines; test: Synergy with venetoclax in cell lines; assay type: cell-based; conditions: Ven Sensitive and Ven Resistant cell lines
Description: FIG. 4A: Ven Sensitive; FIG. 4B: Ven Resistant.

[7] = system: HCT-116 CRC cell xenograft; conditions: SCID, mouse, in vivo, po, 100 mg/kg
Description: Animals were randomized into 2 groups when tumors reached 100 mm diameter. Group A assigned single dosing. […] Drug concentration was measured in tumor and plasma after last dose at the following time points: 0, 4, 8, 24, 48, 72 hrs. […] Concentration of voruciclib in plasma is in units of μg/ml and in μg/g for tumors.

Solid Tumors [8] = test: Monotherapy Phase 1 study in solid tumors, daily continuously schedule; assay type: in vivo, human
Gelling in aqueous media = assay type: physicochemical
Description: Voruciclib can form a gel when dissolved in various media, depending on the other chemicals present. […] In general, voruciclib was more prone to gel at suspension concentrations >5 mg/mL and solubilities >0.5 mg/mL.

## CN1CC[C@@H](c2c(O)cc(O)c3c(=O)cc(-c4ccc(C(F)(F)F)cc4Cl)oc23)[C@@H]1CO [Voruciclib, (+)-trans-2-(2-chloro-4-trifluoromethylphenyl)-5,7-dihydroxy-8-(2-hydroxymethyl-1-methylpyrrolidin-3-yl)-chromen-4-one]
[1]; Day 1, 75 mg
  t½: 21.776 h
[1]; Day 1, 150 mg
  AUC0-∞: 15592.890 ng·h/mL
[1]; Day 1, 250 mg
  AUC0-∞: 16383.699 ng·h/mL
  Cmax: 471.955 ng/mL
[1]; Day 1, 350 mg
  AUC0-24: 10388.095 ng·h/mL
  CL/F: 4.224 L/h
[1]; Day 1, 500 mg
  AUC0-24: 16370.472 ng·h/mL
  AUC0-t: 16370.472 ng·h/mL
  CL/F: 2.107 L/h
[1]; 75 mg
  Accumulation Ratio (AUC0-t): 2.634
[1]; 150 mg
  Accumulation Ratio (AUC0-t): 3.637
[1]; 250 mg
  Accumulation Ratio (AUC0-t): 3.090
[1]; 350 mg
  Accumulation Ratio (AUC0-t): 2.767
[1]; 500 mg
  Accumulation Ratio (AUC0-t): 2.577
[1]; Day 15, 75 mg
  AUC0-∞: 27200.362 ng·h/mL
[1]; Day 15, 150 mg
  AUC0-24: 16642.661 ng·h/mL
  AUC0-t: 16642.661 ng·h/mL
  AUC0-∞: 164073.250 ng·h/mL
  t½: 131.733 h
[1]; Day 15, 250 mg
  Cmax: 1047.832 ng/mL
  t½: 38.750 h
[1]; Day 15, 350 mg
  AUC0-∞: 164113.625 ng·h/mL
  CL/F: 1.607 L/h
[1]; Day 15, 500 mg
  AUC0-24: 40465.337 ng·h/mL
  AUC0-t: 40465.337 ng·h/mL
  AUC0-∞: 108301.704 ng·h/mL
  CL/F: 1.031 L/h
c-MYC expression
  patients with decreased c-MYC expression / patients tested: 17/25
[2]; AML patients
  Differentiation syndrome (number of pts): 5
  Differentiation syndrome (share of pts): 50%
[2]; human, in vivo
  Cmax and AUC dose dependence: Dose proportional
  volume of distribution: High
[2]; in vivo
  GI toxicity or neutropenia: No GI toxicity or neutropenia
[3]; Day 1, 600 mg
  t½: 32.544 h
[3]; Day 13, 300 mg
  AUC0-∞: 59331.780 ng·h/mL
  t½: 16.166 h
[3]; Day 13, 850 mg
  t½: 22.380 h
clinical
  additional time to clear from the tissue after it clears the plasma: 3 days
  half-life: 120 to 240 h
[4]
  most common AEs: involved GI tract
  myelosuppression: no evidence of myelosuppression
Solid Tumors [5]
  PR (number of patients): 1
[6]
  synergy with Venetoclax: Synergizes
[7]
  level in tumor at 8 hours compared to 24 hours post dosing: > 5 fold
Solid Tumors [8]
  duration of SD, median: 15 weeks
Gelling in aqueous media
  solubility at which more prone to gel: > 500 µg/mL
  suspension concentration at which more prone to gel: > 5 mg/mL
Gelling in aqueous media; pH 1.6 (FaSSGF)
  Gelling: Gelling was observed
Gelling in aqueous media; pH 6.5 (FaSSIF)
  Gelling: Gelling was observed
